In US6551793B1, “Carotenoid-associated proteins useful for high carotenoid accumulation and production in plants and other organisms” (Yissum Research Development Company of the Hebrew …, priority 1996, dated 2003):

Columns and labels:
Format in all cases: cell-based, Cucumis sativus
CHRD = assay: In vitro flower bud culture, Western blot of CHRD in corollas
Description: CHRD levels in corollas were analyzed by western blotting (10 μg of total protein per lane) using antibodies against CHRD and horseradish peroxidase anti-rabbit IgG in an enhanced chemiluminescence detection system. FIG. 14B is a Western blot analysis of corollas (50 μg of total protein per lane) cultured for the indicated periods with (+) or without (−) GA3. The blot was decorated with antibodies against CHRD and alkaline phosphatase anti-rabbit 1 gG.
(§1) In FIG. 15A, antibodies against CHRD or CHRC were used in a western blot analysis of CHRD and CHRC levels, respectively, in corollas cultured for 72 hours in the presence (E) or absence (C) of ethylene (50 μg of total protein per lane). In FIG. 15B, flowers were enclosed in aluminum foil in the greenhouse for 3 days and CHRD levels in etiolated (D) and control, nonetiolated (L) corollas were analyzed by western blotting (50 μg of total protein per lane).
(§2) This example describes plant material and conditions for in vitro flower bud culture. C. sativus L. plants (cultivar Shimahon, obtained from Zeraim Gadera, Israel) were grown under standard greenhouse conditions. In vitro culture of flower buds was performed at 23° C., under constant light from cool white fluorescent lamps with a photosynthetic photon flux density of 80 μmol/m^2 g, as described previously. Briefly, buds at developmental stage 1 (˜8 mm in length, 120 hours before anthesis) were collected and rinsed several times with sterile water. Buds were then placed for 24 hours on a perforated Parafilm (American National Can, Greenwich, Conn.) covering a Petri dish filled with double-distilled sterile water, such that only the bases of the buds were in contact with the liquid. Following equilibration, buds were transferred to a fresh Petri dish (zero time for the experiments) and treated with GA3, ABA, paclobutrazol, or CHX, as specified in the figure legends.
CHRD protein was isolated from Cucumis sativus as a minor component, immunologically characterised and analyzed in terms of the regulation of its expression by developmental signals using methods and conditions described above for CHRC. […] Carotenoids are known to accumulate in dark.

CHRC mRNA = assay: In vitro flower bud culture, Northern blot of CHRC mRNA in corollas
Description: (§3) Young flower buds were cultured in vitro in the presence (GA) or the absence (C) of 100 μM GA3 for up to 48 hours. Northern and Western blot analyses of corollas, cultured for the indicated periods of time, were performed. The Northern blots (25 μg total RNA/lane) were hybridized with ^32P-labeled DNA inserts from CHRC (CHRC), […] (Psy), and 18s rDNA (18S). Western blot analysis (bottom panel of A) was performed using antibodies against CHRC protein (25 μg total protein/lane). The results of the CHRC Northern blot analyses are also shown graphically relative to the mRNA level of the untreated corollas at zero time (0) (arbitrary value of 1).
(§4) Flower buds were cultured in the presence of 100 μm GA3 (GA), 100 μg/ml paclobutrazol following 2 hours of pretreatment with 100 μg/ml paclobutrazol (P), 100 μg/ml paclobutrazol +100 μm GA3 following 2 hours of pretreatment with 100 μg/ml paclobutrazol (P/GA), 100 μM ABA (ABA), or no phytohormones (C). Total RNA was extracted from corollas after 2 hours of treatment. Northern blot analyses were performed and probed as described in the legend to FIG. 7.
(§5) Total RNA and protein were extracted from cucumber corollas of flower buds cultured for 6 hours in the presence of 100 μM GA3 (GA), 50 μM CHX following 2 hours of pretreatment with 50 μM CHX (CHX/GA), or no phytohormones (C). Northern (CHRC, Psy, and 18S) and Western (bottom panel) blot analyses were performed as described above.
In FIG. 10, flower buds were cultured for 2 hours without (0) or with various concentrations of GA3. Total RNA was isolated from corollas, and a Northern blot was probed as above. The results of the CHRC Northern blot analyses are also shown graphically relative to the mRNA level of control corollas cultured without GA3 (arbitrary value of 1).
as §2
This example describes conditions used for RNA isolation and Northern blot analysis. Total RNA from corollas of cucumber flower buds was isolated as described previously. RNA (15 and 25 μg) was fractionated through a 1.2% formaldehyde gel and transferred to a Hybond-N^− filter (Amersham Corp.). A random priming kit (Boehringer Mannheim) was used to radioactively labeled DNA probes. The blots were hybridized with ^32P-labeled cucumber CHRC cDNA (Vishnevetsky, et al., Plant Journal, 10: 1111-1118 (1996)) and reprobed with melon phytoene synthase (PSY) cDNA (MEL5), provided by D. Grierson of the Nottingham University, UK. The hybridization for analysis of CHRC expression was carried out in 0.263 M Na2HPO4, 7% SDS, […], 1% BSA for 16 hours at 60° C., and the washes were performed in 2×SSC/0.1% SDS at 50° C. followed by 2×SSC/0.1% SDS at 55° C., for 20 minutes each. Hybridization with the MEL5 probe was carried out at 55° C. using the same procedure. Following the hybridization, the blots were washed in 5×SSC/0.1% SDS at 45° C. for 20 minutes followed by 5×SSC/0.1% SDS at 50° C. and 2×SSC/0.1% SDS at 50° C. for 20 minutes each. […]

Psy mRNA = assay: In vitro flower bud culture, Northern blot of Psy mRNA in corollas
Description: as §3, §4, §5
as §2, with “Following equilibration, buds were transferred to a fresh Petri dish (zero time for the experiments) and treated with GA3, ABA, paclobutrazol, or CHX, as specified in the figure legends.” left out
This example describes conditions used for RNA isolation and Northern blot analysis. […] Autoradiograms were quantified by scanning suitably exposed films in a densitometer (Molecular Dynamics, Sunnyvale, Calif.). The amount of RNA loaded onto the gels was standardized by optical measurement, by quantitation of the ethidium bromide fluorescence of cytoplasmic rRNA. and by the level of hybridization with a DNA fragment coding for cytoplasmic 18S RNA.

CHRC protein = assay: In vitro flower bud culture, Western blot of CHRC protein in corollas
Description: as §1, §2

[1] = tested on: GUS reporter gene expression; assay: Transient expression of reporter gene GUS under CHRC promoter versus 35S CaMV promoter
From the text: FIGS. 1A and 1B show comparative photographs of cucumber flowers petals showing transient expression of the reporter gene GUS using CHRC promoter (FIG. 1A) or known 35S CaMV promoter (FIG. 1B).
The promoter containing CHRC upstream region was about 70% as efficient as the 35S CaMV promoter in cucumber petals and about 60% as efficient in leaves, fruits and stems. The CHRC promoter's efficiency in another representative of the cucurbit family, namely in melon, was similar to the efficiency found in cucumber.
In cucumber-petals, the CHRC upstream region was about 70% as efficient as the 35S CaMV promoter. In leaves, fruits and stems, the CHRC promoter was about 60% as efficient as 35S CaMV. Promoter's efficiency in melon was similar to that observed in cucumber.

[2] = 50 μM CHX with 100 μM GA3, 6 hours
[3] = dose response 1×10^−8 to 1×10^−4 M GA3, 2 hours
[4] = ethylene, corollas cultured for 72 hours

## CC(C)(C)[C@@H](O)[C@@H](Cc1ccc(Cl)cc1)n1cncn1 (racemic) [paclobutrazol]
CHRD; flower buds cultured for 72 hours
  CHRD level per unit protein, down-regulation compared with control untreated corollas: 4.8±0.2 times
CHRC mRNA; 100 μg/ml paclobutrazol after 2 hours of pretreatment, 2 hours of treatment
  Decrease in CHRC mRNA levels relative to control untreated corollas: 4 fold
Psy mRNA; 100 μM ABA or 100 μg/ml paclobutrazol, 2 hours of treatment
  Effect on Psy mRNA levels: Neither ABA nor paclobutrazol markedly affected

## C[C@@H]1C[C@@H]([C@H](O)CC2CC(=O)NC(=O)C2)C(=O)[C@@H](C)C1 [CHX, cycloheximide]
CHRC mRNA; [2]
  Effect on up-regulation of CHRC mRNA by GA3: did not prevent
CHRC mRNA; CHX alone
  Effect of CHX alone on CHRC transcript accumulation: did not affect
CHRC protein; [2]
  Effect on increase in CHRC protein levels in GA3-treated buds: successfully abolished
Psy mRNA; 50 μM CHX, 6 hours
  Effect on Psy mRNA levels: unaffected

## C=C1C[C@]23C[C@@]1(O)CC[C@H]2[C@@]12C=C[C@H](O)[C@@](C)(C(=O)O1)[C@H]2[C@@H]3C(=O)O [GA3, Gibberellin A3]
CHRD; GA3, after only 2 hours
  CHRD level in treated versus untreated buds: markedly higher
CHRD; GA3, in vitro bud culture, 72 hours
  CHRD accumulation with GA3 in the culture medium: enhanced accumulation
CHRC mRNA; 100 μM GA3, after 20 minutes of treatment
  CHRC mRNA level in treated versus control corollas: approximately twice as high
CHRC mRNA; 100 μg/ml paclobutrazol + 100 μm GA3 after 2 hours paclobutrazol pretreatment
  CHRC transcript accumulation with exogenous GA3 added to paclobutrazol: up-regulated CHRC transcript accumulation to the level of GA3-treated corollas
CHRC mRNA; [3]
  Concentration at which CHRC was strongly up-regulated: 10^−5−10^−4 M
  Lowest concentration sufficient to markedly elevate basal CHRC mRNA levels: 10^−7 M
CHRC mRNA; response to GA3, early time points (data not shown)
  Time to detectable increase in CHRC mRNA level: 10 to 20 min
CHRC protein; 100 μM GA3, after 2 hours of treatment
  CHRC per unit of protein in treated versus control corollas: approximately 2.5 times
Psy mRNA; GA3 treatment, first 45 hours of corolla development
  Effect on Psy mRNA levels: not affected

## C=C [ethylene]
CHRD; [4]
  CHRD level per unit protein following treatment: down-regulated
CHRC protein; [4]
  CHRC level in treated corollas versus controls: lower than that in controls

B1: CHRC upstream region: sequenced upstream region of the cucumber CHRC gene with strong promoter activity, SEQ ID NO:10 (nucleic acid, listed as Cucumis sativus)
DNA: AAGCTTTACAAATTAGGGTTACTTTATTCATTTTCATCCATTCTCTTTATTGTTAAATTTTGTACATTTATTCAATAATATTATATGTTTATTACAAATTCTCACTTTCTTATTCATACCTATTCACTCAAGCCTTTACCATCTTCCTTTTCTATTTCAATACTATTTCTACTTCATTTTTCACGTTTTTAACATCTTTCTTTATTTCTTGTCCACTTCGTTTAGGGATGCCTAATGTCCCAAATTTCATCTCTCGTAGTAACACAAAACCAATGTAATGCTACTTCTCTCTACATTTTTAATACAAATAAAGTGAAACAAAATATCTATAAATAAACAAATATATATATTTTGTTAGACGCTGTCTCAACCCATCAATTAAAAAATTTTGTTATATTTCTACTTTACCTACTAAATTTGTTTCTCATATTTACCTTTTAACCCCCACAAAAAAAAATTATAAAAAAGAAAGAAAAAAGCTAAACCCTATTTAAATAGCTAACTATAAGATCTTAAAATTATCCTCATCAGTGTATAGTTTAATTGGTTATTAACTTATAACATTATATATCTATGACATATACTCTCTCCTAGCTATTTCTCACATTTTTTAACTTAAGAAAATAGTCATAACATAGTCTAAAATTCAAACATCCACATGCTCTAATTTGATTAACAAAAAGTTAGAAATATTTATTTAAATAAAAAAGACTAATAAATATATAAAATGAATGTTCATACGCAGACCCATTTAGAGATGAGTATGCTTTCACATGCTGAGATTATTTTCAAAACTAAGGTTGTAGCAATATTAAATCAATAAAATTATTATAAATAACAAAATTAACCTGCTCGTGTTTGCTGTATATGGGAGGCTACAAAATAAATTAAACTAAAGATGATTATGTTTTAGACATTTTTTCTATCTGTATTAGTTTATACATATTAATTCAGGAGCTGCACAACCCAATTCTATTTTCGTTCCTTGGTGGCTGGGTTTCTCACAAGGTTCAATAGTCAATATTAGGTTTTATTGGACTTTTAATAGTATCAAACAAATCTATGTGTGAACTTAAAAATTGTATTAAATATTTAGGGTAACCTGTTGCCGTTTTTAGAATAATGTTTCTTCTTAATACACGAAAGCGTATTGTGTATTCATTCATTTGGCGCCTCACATGCTTCGGTTGGCTCGCTTTAGTCTCTGCCTTCTTTGTATATTGTACTCCCCCTCTTCCTATGCCACGTGTTCTGAGCTTAACAAGCCACGTTGCGTGCCATTGCCAAACAAGTCATTTTAACTTCACAAGGTCCGATTTGACCTCCAAAACAACGACAAGTTTCCGAACAGTCGCGAAGATCAAGGGTATAATCGTCTTTTTGAATTCTATTTCTCTTTATTTAATAGTCCCTCTCGTGTGATAGTTTTTAAAAGATTTTTAAAACGTAGCTGCTGTTTAAGTAAATCCCAGTCCTTCAGTTTGT
[1]; cucumber leaves, fruits and stems
  Efficiency relative to the 35S CaMV promoter: about 60%
[1]; cucumber petals
  Efficiency relative to the 35S CaMV promoter: about 70%
